The source of these data is EPA's ToxRefDB 2.

For series [1], the system named is mouse. The settings on record: Carcinogenicity; b6c3f1; Oral; Feed; dose end: 78 week; group: systemic; systemic / in life observation / body weight / body weight.
The test system of series [2] is rat. The settings on record: Developmental neurotoxicity study; sprague dawley; Oral; Gavage/Intubation; dose end: 125 PND; group: cannot be grouped; systemic / in life observation / body weight / offspring (pup) weight.
The subject of series [3] is rat. Conditions: Developmental neurotoxicity study; sprague dawley; Oral; Feed; dose end: 48 PND; group: cannot be grouped; developmental / developmental landmark / eye opening / eye opening + reproductive / offspring survival early / litter size / litter size + ….
In series [4] the test system is rat. The settings on record: Peri- and post-natal toxicity study (Segment III), sprague dawley, Oral, Gavage/Intubation, dose end: 54 PND.
The subject of series [5] is mouse. The settings on record: Carcinogenicity; other; Oral; Water; dose end: 36 week; group: systemic; systemic / pathology microscopic / liver / adenoma + systemic / organ weight / liver / absolute + systemic / organ weight / liver / relative….
Series [6] deals with rat. Conditions: Chronic toxicity, fischer, Oral, Feed, dose end: 104 week, group: systemic.
In series [7] the test system is rat. Conditions: Prenatal developmental toxicity study, sprague dawley, Inhalation, Whole-Body, dose end: 15 GD, group: maternal.
Series [8] relates to rat. The settings on record: Subchronic inhalation toxicity, fischer, Whole-Body, dose end: 14 week, group: systemic.
The test system of series [9] is rat. Conditions: Acute inhalation toxicity, fischer, Whole-Body, dose end: 2 week, group: systemic.
In series [10] the test system is rat. The settings on record: Prenatal developmental toxicity study, sprague dawley, Inhalation, Whole-Body, dose end: 15 GD, group: maternal. The source holds these as a separate data set.
Series [11] concerns rat. Conditions: Combined chronic toxicity/carcinogenicity, fischer, Oral, Feed, dose end: 2 year, group: systemic.
In series [12] the test system is rat. Conditions: Multigenerational reproductive toxicity study, sprague dawley, Oral, Gavage/Intubation, dose end: 2 generation.
Series [13] has as its system mouse. Conditions: Carcinogenicity, b6c3f1, Oral, Feed, dose end: 2 year, group: systemic.
The test system of series [14] is mouse. The settings on record: Subchronic oral toxicity in rodents, b6c3f1, Feed, dose end: 13 week, group: systemic.
Series [15] concerns rat. Conditions: Subchronic oral toxicity in rodents, fischer, Feed, dose end: 13 week.
Series [16] relates to rat. The settings on record: Multigenerational reproductive toxicity study, other, Oral, Gavage/Intubation, dose end: 2 generation.
Setting [17] is: group: developmental, developmental / developmental landmark / vaginal opening / vaginal opening + developmental / developmental landmark / preputial separation….
[18] abbreviates: group: parental, systemic / in life observation / clinical signs / ataxia + systemic / in life observation / clinical signs / prostration + systemic / organ ….
The mark [19] stands for this setting: group: parental, systemic / organ weight / adrenal gland / absolute + systemic / organ weight / liver / absolute.
Setting [20] is: systemic / organ weight / liver / relative to body weight + systemic / pathology gross / liver / discolored + systemic / pathology gross / ….
[21] abbreviates: systemic / in life observation / body weight / body weight + systemic / in life observation / body weight / body weight gain + systemic / in….
Setting [22] is: systemic / pathology microscopic / nose / hyperplasia + systemic / pathology microscopic / nose / hypertrophy + systemic / pathology ….
[23] abbreviates: systemic / in life observation / body weight / body weight + systemic / in life observation / clinical signs / body temperature + systemic….
Where [24] appears, read: systemic / in life observation / body weight / body weight gain.
[25] abbreviates: systemic / pathology microscopic / kidney / hyaline droplet + systemic / pathology microscopic / kidney / pigmentation.
The mark [26] stands for this setting: group: offspring, systemic / in life observation / body weight / offspring (pup) weight + systemic / organ weight / brain / absolute + developmental / ….
The mark [27] stands for this setting: group: parental, systemic / in life observation / body weight / body weight + systemic / in life observation / clinical signs / drooping eyelids (ptosis) + ….
Where [28] appears, read: group: parental, systemic / in life observation / clinical signs / salivation + systemic / organ weight / kidney / relative to body weight + systemic / organ….
Where [29] appears, read: group: reproductive, reproductive / reproductive performance / gestational length / gestational length + reproductive / reproductive performance / implantations….
The mark [30] stands for this setting: group: reproductive, reproductive / reproductive performance / implantations / implantations.
[31] abbreviates: systemic / pathology microscopic / lung / bronchiolization.
Where [32] appears, read: systemic / organ weight / liver / relative to body weight.
[33] abbreviates: group: maternal, reproductive / reproductive performance / estrous cycle / abnormal.
[34] abbreviates: group: systemic, systemic / hematology / erythrocyte (rbc) count differential / erythrocyte (rbc) + systemic / hematology / hematocrit (hct) / hematocrit (….
Setting [35] is: group: systemic, systemic / pathology microscopic / kidney / nephropathy + systemic / pathology microscopic / spleen / congestion + systemic / pathology ….
Where [36] appears, read: group: offspring, developmental / offspring survival late / viability index / viability index + developmental / developmental landmark / anogenital distance (….
The mark [37] stands for this setting: group: parental, systemic / clinical chemistry / thyroxine (t4) / thyroxine (t4), total + systemic / organ weight / kidney / absolute + systemic / organ ….
The mark [38] stands for this setting: group: parental, systemic / organ weight / liver / absolute + systemic / organ weight / liver / relative to body weight + systemic / organ weight / kidney / ….

Molecules are shown by their SMILES. Where only a bound is given, the exact number is not on record here.

What is called LOAEL is the lowest tested level that showed an adverse finding. What is called NOAEL is the highest tested level that showed no adverse finding. With `N[C@@H](Cc1c[nH]c2ccccc12)C(=O)O` [l-Tryptophan], in series [1], the LEL amounted to 3750 mg/kg/day, the LOAEL turned out to be 3750 mg/kg/day, the NEL was under 3750 mg/kg/day and the NOAEL was under 3750 mg/kg/day.

In the case of `CCC1(c2ccccc2)C(=O)NC(=O)NC1=O` [Phenobarbital], the LEL in series [2] came out at 40 mg/kg/day; in [3], 37.5 mg/kg/day; in series [4] (setting [17]) it was 100 mg/kg/day; in series [4] (setting [19]) it was 25 mg/kg/day; in series [5], 75 mg/kg/day; in series [6] (systemic / organ weight / liver / relative to body weight + systemic / pathology gross / liver / mass + systemic / pathology microscopic / …) it was 4.6 mg/kg/day. The LOAEL in series [2] was over 80 mg/kg/day; in series [3] it was over 37.5 mg/kg/day; in [4] (setting [17]), over 100 mg/kg/day; in [4] (setting [18]) it was over 100 mg/kg/day; in series [5], over 75 mg/kg/day; in [6] (setting [20]) it was over 19 mg/kg/day. Moreover, the NEL in series [2] is under 40 mg/kg/day; in series [3], under 37.5 mg/kg/day; in series [4] (group: developmental, developmental / developmental landmark / vaginal opening / vaginal opening), 50 mg/kg/day; in series [4] (setting [19]), under 25 mg/kg/day; in series [5], under 75 mg/kg/day; in series [6] (setting [20]) it was 1.1 mg/kg/day. For the same compound, the NOAEL is at least 80 mg/kg/day in [2]; at least 37.5 mg/kg/day in series [3]; at least 100 mg/kg/day in series [4] (setting [17]); at least 100 mg/kg/day in series [4] (setting [18]); at least 75 mg/kg/day in series [5]; at least 19 mg/kg/day in series [6] (setting [20]).

Turning to `CCN(CC)CCO` [N,N-Diethylethanolamine], the LOAEL in series [7] (setting [21]) is over 100 ppm; in series [8] (systemic / pathology microscopic / nose / hyperplasia + systemic / pathology microscopic / nose / infiltration cellular) it was 25 ppm; in [9] (setting [23]) it was over 300 ppm; in series [10] (setting [21]) it was over 200 ppm. The NEL was determined as 33 ppm in [7] (setting [21]), 10 ppm in [8] (setting [22]), 10 ppm in series [9] (setting [23]) and 10 ppm in series [10] (setting [21]). The NOAEL in [7] (setting [21]) is at least 100 ppm; in series [8] (setting [22]) it was 10 ppm; in [9] (setting [23]) it was at least 300 ppm; in series [10] (setting [21]), at least 200 ppm. Also, the LEL in [7] (systemic / in life observation / body weight / body weight gain + systemic / in life observation / food consumption / food consumption) is 66 ppm; in series [8] (systemic / pathology microscopic / nose / hyperplasia + systemic / pathology microscopic / nose / infiltration cellular + systemic / …) it was 25 ppm; in series [9] (systemic / pathology microscopic / nose / infiltration cellular + systemic / pathology microscopic / nose / metaplasia), 55 ppm; in series [10] (setting [24]), 50 ppm.

For the compound `Cc1ccc([N+](=O)[O-])cc1` [4-Nitrotoluene], the LEL turned out to be 55 mg/kg/day in series [11] (setting [25]); 80 mg/kg/day in [12] (group: offspring, systemic / in life observation / body weight / offspring (pup) weight + systemic / organ weight / brain / absolute); 40 mg/kg/day in series [12] (setting [28]); 40 mg/kg/day in series [12] (setting [30]); 155 mg/kg/day in series [13] (setting [31]); 131 mg/kg/day in series [14] (setting [32]). The LEL worked out at 680 mg/kg/day in [15] (setting [33]); 42 mg/kg/day in series [15] (setting [35]); 80 mg/kg/day in series [16] (group: offspring, systemic / organ weight / brain / absolute); 40 mg/kg/day in series [16] (setting [38]). Further, the NEL in series [11] (setting [25]) was under 55 mg/kg/day; in series [12] (group: offspring, systemic / in life observation / body weight / offspring (pup) weight + developmental / offspring survival late / viability index / …), 40 mg/kg/day; in [12] (setting [28]), under 40 mg/kg/day; in series [12] (setting [30]) it was under 40 mg/kg/day; in series [13] (setting [31]), under 155 mg/kg/day; in series [14] (setting [32]), under 131 mg/kg/day. Moreover, the NEL in series [15] (setting [33]) was 335 mg/kg/day; in series [15] (setting [35]) it was under 42 mg/kg/day; in series [16] (setting [36]), 40 mg/kg/day; in series [16] (setting [38]), under 40 mg/kg/day. The LOAEL is 110 mg/kg/day in series [11] (systemic / pathology microscopic / spleen / hematopoietic cell proliferation + systemic / pathology microscopic / spleen / pigmentation); over 160 mg/kg/day in [12] (setting [26]); over 160 mg/kg/day in series [12] (setting [27]); over 160 mg/kg/day in series [12] (setting [29]); 345 mg/kg/day in [13] (systemic / in life observation / body weight / body weight); 813 mg/kg/day in series [14] (setting [24]). Also, the LOAEL in [15] (setting [33]) is over 680 mg/kg/day; in [15] (setting [34]), 335 mg/kg/day; in series [16] (setting [36]), 160 mg/kg/day; in [16] (setting [37]) it was over 160 mg/kg/day. Further, the NOAEL in series [11] (systemic / pathology microscopic / spleen / hematopoietic cell proliferation + systemic / pathology microscopic / spleen / pigmentation + …) was 55 mg/kg/day; in series [12] (setting [26]), at least 160 mg/kg/day; in series [12] (setting [27]), at least 160 mg/kg/day; in series [12] (setting [29]), at least 160 mg/kg/day; in [13] (systemic / in life observation / body weight / body weight + systemic / pathology microscopic / lung / adenoma/carcinoma combined + systemic…), 170 mg/kg/day; in series [14] (systemic / in life observation / body weight / body weight gain + systemic / in life observation / food consumption / food consumption + …), 439 mg/kg/day. The NOAEL in series [15] (setting [33]) is at least 680 mg/kg/day; in series [15] (setting [34]), 164 mg/kg/day; in series [16] (group: offspring, developmental / offspring survival late / viability index / viability index + systemic / organ weight / brain / absolute) it was 80 mg/kg/day; in series [16] (setting [37]), at least 160 mg/kg/day.
